The test system of test [1] is leukotriene biosynthesis. Kind of test: Inhibition of leukotriene biosynthesis in vivo after oral administration, rat peritoneal anaphylaxis model. To be noted: at 30 μM/kg, gavage one hour prior to antigen challenge, peritoneal fluid 15 minutes after challenge. How it is done: Inhibition of the biosynthesis of leukotrienes in vivo after oral administration of compound was determined using a rat peritoneal anaphylaxis model in a similar manner as that described by Yound and coworkers (Young, P. R.; Dyer, R. D.; Carter, G. W. Fed. Proc., Fed. Am. Soc. Exp. Biol. 1985, 44, 1185). In this model rats were injected intraperitoneally (ip) with rabbit antibody to bovine serum albumin (BSA) and three hours later injected ip with BSA to induce an antigen-antibody response. Rats were sacrificed 15 minutes after this challenge and the peritoneal fluids were collected and analyzed for leukotriene levels. Test compounds were administered by gavage one hour prior to the antigen challenge. Percent inhibition values were determined by comparing the treatment group to the mean of the control group.

Test [2] concerns the target T1, 5-Lipoxygenase (Homo sapiens, UniProt P09917).
T1 construct: Human heparinized whole blood was preincubated with test compounds or vehicle for 15 min; endogenous in cells; host or cells: heparinized human whole blood (blood cells stimulated with calcium ionophore A23187)
T1 sequence (P09917 1-674): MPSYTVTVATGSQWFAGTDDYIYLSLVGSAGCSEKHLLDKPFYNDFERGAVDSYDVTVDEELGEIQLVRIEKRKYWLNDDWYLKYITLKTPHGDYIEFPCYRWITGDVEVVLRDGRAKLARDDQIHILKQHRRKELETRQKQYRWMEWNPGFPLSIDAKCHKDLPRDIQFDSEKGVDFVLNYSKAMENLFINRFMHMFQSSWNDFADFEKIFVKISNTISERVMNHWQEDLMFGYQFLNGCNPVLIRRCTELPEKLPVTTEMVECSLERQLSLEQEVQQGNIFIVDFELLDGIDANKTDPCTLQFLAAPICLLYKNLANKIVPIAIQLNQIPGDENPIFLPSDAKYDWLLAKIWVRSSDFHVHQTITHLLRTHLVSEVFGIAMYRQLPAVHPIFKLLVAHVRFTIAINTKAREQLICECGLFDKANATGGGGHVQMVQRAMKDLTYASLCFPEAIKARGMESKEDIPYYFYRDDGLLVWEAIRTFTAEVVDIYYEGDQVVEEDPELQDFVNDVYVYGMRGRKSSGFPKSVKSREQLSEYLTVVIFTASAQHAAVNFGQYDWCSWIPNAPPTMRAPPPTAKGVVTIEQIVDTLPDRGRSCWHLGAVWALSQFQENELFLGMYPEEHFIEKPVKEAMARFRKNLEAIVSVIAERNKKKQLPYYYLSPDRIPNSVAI
Kind of test: Inhibition of calcium ionophore-induced LTB4 biosynthesis in human whole blood (5-lipoxygenase inhibition). Conditions: human heparinized whole blood, A23187 8.3 μM; for IC50: 15 min preincubation at 37° C., 30 min, read-out: IC50, inhibition of 5-lipoxygenase from stimulated LTB4 formation in human whole blood; for percent inhibition of 5-lipoxygenase from stimulated LTB4 formation in human whole blood: @ 0.1 (column unit 10^-6 M). The format is cell-based. How it is done:
Inhibition of leukotriene biosynthesis was evaluated in an assay, involving calcium ionophore-induced LTB4 biosynthesis expressed human whole blood. […] The methanol extract was analyzed for LTB4 using a commercially available radioimmunoassay.

Molecules are shown by their SMILES.

As to `NC(=O)N(O)C1CC(c2cccc(Oc3ccc(F)cc3)c2)C1` (single isomer, unassigned) [Example 1a, N-[3-(3-(4-fluorophenoxy)phenyl)-cyclobutyl]-N-hydroxyurea], the “Percent Inhibition of Leukotriene Biosynthesis” value in test [1] stood at 76%. In test [2], the IC50 came out at 130 nM.

In the case of `NC(=O)N(O)C1CC(c2cccc(Oc3ccc(F)cc3)c2)C1` (single isomer, unassigned) [Example 1b, N-[3-(3-(4-fluorophenoxy)phenyl)-cyclobutyl]-N-hydroxyurea], the “Percent Inhibition of Leukotriene Biosynthesis” value in test [1] was 59%. In addition, the IC50 in test [2] is 160 nM.

With `NC(=O)N(O)C1CC(c2ccccc2)C1` (single isomer, unassigned) [Example 2a, N-[3-phenylcyclobutyl]-N-hydroxyurea], the “Percent Inhibition of Leukotriene Biosynthesis” value in test [1] was 51%. The IC50 in test [2] came out at 330 nM.

As for `NC(=O)N(O)C1CC(c2ccccc2)C1` (single isomer, unassigned) [Example 2b, N-[3-phenylcyclobutyl]-N-hydroxyurea], the “Percent Inhibition of Leukotriene Biosynthesis” value in test [1] worked out at 45%. Also, the IC50 in test [2] was 300 nM.

For the compound `NC(=O)N(O)C1CC(c2ccc(Oc3ccc(F)cc3)s2)C1` (single isomer, unassigned) [Example 3a, N-[3-(5-(4-fluorophenoxy)thien-2-yl)-cyclobutyl]-N-hydroxyurea], the “percent inhibition of 5-lipoxygenase from stimulated LTB4 formation in human whole blood” value in test [2] amounted to 53%.

With `NC(=O)N(O)C1CC(c2ccc(Oc3ccc(F)cc3)s2)C1` (single isomer, unassigned) [Example 3b, N-[3-(5-(4-fluorophenoxy)thien-2-yl)-cyclobutyl]-N-hydroxyurea], the “Percent Inhibition of Leukotriene Biosynthesis” value in test [1] amounted to 82%. For the same compound, in test [2], the “percent inhibition of 5-lipoxygenase from stimulated LTB4 formation in human whole blood” value was determined as 52%.

With `COc1ccc2cc(C3CC(N(O)C(N)=O)C3)ccc2c1` (single isomer, unassigned) [Example 4a, N-[3-(6-methoxy-2-naphthyl)-cyclobutyl]-N-hydroxyurea], in test [2], the IC50 was 230 nM.

Regarding `COc1ccc2cc(C3CC(N(O)C(N)=O)C3)ccc2c1` (single isomer, unassigned) [Example 4b, N-[3-(6-methoxy-2-naphthyl)-cyclobutyl]-N-hydroxyurea], in test [2], the IC50 was determined as 520 nM.

Consider `NC(=O)N(O)C1CC(c2ccc(-c3ccccc3)cc2)C1` (single isomer, unassigned) [Example 5a, N-[3-(4-biphenyl)-cyclobutyl]-N-hydroxyurea], for which, in test [2], the 50% inhibitory concentration (IC50) stood at 90 nM.

`NC(=O)N(O)C1CC(c2ccc(-c3ccccc3)cc2)C1` (single isomer, unassigned) [Example 5b, N-[3-(4-biphenyl)-cyclobutyl]-N-hydroxyurea]: the IC50 in test [2] was found to be 960 nM.

As for `COc1cccc(C2CC(N(O)C(C)=O)C2)c1` (single isomer, unassigned) [Example 6a, N-[3-(3-methoxyphenyl)cyclobutyl]-N-hydroxyacetamide], the IC50 in test [2] came to 510 nM.

Consider `COc1cccc(C2CC(N(O)C(C)=O)C2)c1` (single isomer, unassigned) [Example 6b, N-[3-(3-methoxyphenyl)cyclobutyl]-N-hydroxyacetamide], for which the IC50 in test [2] worked out at 1210 nM.

(Values after patent US5187192A, “Cyclobutyl derivatives having lipoxygenase inhibitory activity” (Abbott Laboratories, priority 1992, dated 1993).)
